From US10752581B2, “4-((2-hydroxy-3-methoxybenzyl)amino)benzenesulfonamide derivatives as potent and selective inhibitors of 12-lipoxygenase” (Eastern Virginia Medical School, priority 2013, dated 2020)
Entries after “also recorded” stand apart in the source; their conditions may differ.

What was measured:
[1] = biological target: human epithelial 15-lipoxygenase-2 (15-LOX-2) (Homo sapiens (Human), UniProt O15296); assay: biochemical
[2] = biological target: human platelet 12-lipoxygenase (12-LOX) (Homo sapiens (Human), UniProt P18054); settings: for IC50: read-out: IC50 [+SD], Table 1, UV-vis cuvette-based assay in triplicate
washed human platelets [3] = assay: PAR4-AP-induced platelet aggregation; format: cell-based
Description: (§1) Blood was centrifuged at 200 g for 13 min at room temperature.

washed human platelets [4] = assay: PAR4-AP-induced calcium mobilization; format: cell-based; settings: 200 μM PAR4-AP; increasing concentrations
Description: as §1

[5] = test system: human donor islet preparations; assay: Glucose-stimulated insulin secretion in human islets; format: cell-based; settings: cytokines (TNFα, IL-1β, IFNγ); 3 mM or 18 mM glucose
Description: FIGS. 3D and 3E show results from glucose-stimulated insulin secretion in human donor islet preparations in response to 3 mM glucose (Low) or 18 mM glucose (High) for control (untreated) islets. […] FIGS. 3D and 3E represent results obtained in different human donor islet preparations.

[6] = PBS buffer (pH 7.4) solubility; format: physicochemical
[7] = Microsomal stability (rat); format: in vitro ADME
mouse plasma stability = format: in vitro ADME
[8] = Stability in aqueous buffers and glutathione; format: physicochemical
12-LOX = 12-LOX (Homo sapiens (Human), UniProt P18054)
Description: Reactions were initiated by adding substrate (range 1-5 μM AA) to approximately 30 nM 12-LOX in a constantly stirring 2 mL cuvette containing 25 mM HEPES buffer (pH 7.5), in the presence of 0.01% Triton X-100. […] Kinetic data were obtained by recording initial enzymatic rates, at varied substrate and inhibitor concentrations, and subsequently fitted to the Henri-Michaelis-Menten equation, using KaleidaGraph (Synergy) to determine the microscopic rate constants, Vmax (μmol/min/mg) and Vmax/KM (μmol/min/mg/μM).

Mouse beta cells (BTC3) = assay: Mouse Beta cells (12-HETE Inhibition) Assay; settings: AA/IONO
Description: After four hours, the media was removed and spun at 1000 RPM for 5 minutes. The cleared supernatant was stored at −80° C. prior to analysis.

[9] = Parallel Artificial Membrane Permeability Assay (PAMPA); settings: PAMPA at pH 7.4

Sequence of human platelet 12-lipoxygenase (12-LOX) (P18054 whole entry): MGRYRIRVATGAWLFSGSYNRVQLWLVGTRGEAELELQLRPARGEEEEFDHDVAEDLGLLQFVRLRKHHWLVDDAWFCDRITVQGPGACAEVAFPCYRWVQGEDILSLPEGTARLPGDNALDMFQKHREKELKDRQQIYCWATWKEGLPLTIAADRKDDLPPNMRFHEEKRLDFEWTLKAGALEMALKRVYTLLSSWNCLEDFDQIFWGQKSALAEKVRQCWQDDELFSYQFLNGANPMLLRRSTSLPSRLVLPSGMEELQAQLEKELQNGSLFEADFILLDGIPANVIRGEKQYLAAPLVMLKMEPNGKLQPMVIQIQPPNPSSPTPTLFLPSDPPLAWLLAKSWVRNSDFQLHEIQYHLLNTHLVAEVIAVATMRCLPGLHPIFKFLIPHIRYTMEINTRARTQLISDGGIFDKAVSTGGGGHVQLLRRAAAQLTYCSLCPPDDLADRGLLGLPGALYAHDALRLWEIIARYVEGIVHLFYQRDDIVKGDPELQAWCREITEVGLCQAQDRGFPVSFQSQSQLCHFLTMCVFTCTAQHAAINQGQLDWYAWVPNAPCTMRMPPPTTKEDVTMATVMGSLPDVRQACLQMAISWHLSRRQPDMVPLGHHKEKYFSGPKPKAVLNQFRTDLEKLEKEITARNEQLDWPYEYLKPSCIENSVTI
Sequence of human epithelial 15-lipoxygenase-2 (15-LOX-2) (O15296 whole entry): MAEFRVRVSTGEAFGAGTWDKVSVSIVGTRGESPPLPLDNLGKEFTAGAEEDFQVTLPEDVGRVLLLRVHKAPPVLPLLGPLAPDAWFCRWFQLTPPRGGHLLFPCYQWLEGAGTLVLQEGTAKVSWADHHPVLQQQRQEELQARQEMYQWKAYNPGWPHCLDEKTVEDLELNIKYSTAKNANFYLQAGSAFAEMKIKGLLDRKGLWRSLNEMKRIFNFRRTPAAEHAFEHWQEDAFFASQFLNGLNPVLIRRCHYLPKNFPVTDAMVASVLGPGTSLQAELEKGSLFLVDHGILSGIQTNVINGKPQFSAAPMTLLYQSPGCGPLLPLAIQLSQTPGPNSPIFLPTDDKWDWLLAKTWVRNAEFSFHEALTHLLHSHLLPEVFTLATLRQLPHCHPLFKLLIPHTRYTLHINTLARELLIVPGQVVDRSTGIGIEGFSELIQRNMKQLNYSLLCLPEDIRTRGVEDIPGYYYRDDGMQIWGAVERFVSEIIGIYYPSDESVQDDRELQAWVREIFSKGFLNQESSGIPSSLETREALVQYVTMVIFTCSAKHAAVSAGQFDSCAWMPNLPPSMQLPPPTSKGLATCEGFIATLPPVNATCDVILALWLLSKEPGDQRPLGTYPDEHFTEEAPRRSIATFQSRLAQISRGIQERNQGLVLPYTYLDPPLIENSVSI
Sequence of 12-LOX (P18054 whole entry): as the sequence (P18054 whole entry) above

SMILES: COc1cccc(CNc2ccc(S(=O)(=O)Nc3nccs3)cc2)c1O [Compound 1, 4-(2-hydroxy-3-methoxybenzylamino)-N-(thiazol-2-yl)benzenesulfonamide]
- IC50 [1]: > 40 µM

SMILES: O=S(=O)(Nc1nccs1)c1ccc(NCc2ccccc2)cc1 [Compound 8, 4-(benzylamino)-N-(thiazol-2-yl)benzene sulfonamide]
- 12-LOX inhibitory activity (SAR, in words) [2]: complete loss of activity
- IC50 [2]: > 40 µM

SMILES: O=S(=O)(Nc1nccs1)c1ccc(NCc2ccccc2O)cc1 [Compound 9, 4-(2-hydroxybenzylamino)-N-(thiazol-2-yl)benzene sulfonamide]
- 12-LOX inhibitory activity (SAR, in words) [2]: complete loss of activity
- IC50 [2]: > 40 µM

SMILES: Nc1ccccc1CNc1ccc(S(=O)(=O)Nc2nccs2)cc1 [Compound 13, 4-(2-aminobenzylamino)-N-(thiazol-2-yl)benzene sulfonamide]
- 12-LOX inhibitory activity (SAR, in words) [2]: negated all 12-LOX inhibitory activity
- IC50 [2]: > 40 µM

SMILES: O=S(=O)(Nc1nccs1)c1ccc(NCc2cccc(O)c2)cc1 [Compound 14, 4-(3-hydroxybenzylamino)-N-(thiazol-2-yl)benzene sulfonamide]
- IC50 [2]: > 40 µM

SMILES: COc1cccc(CNc2ccc(S(=O)(=O)Nc3nc4ccccc4o3)cc2)c1O [Compound 36, N-(benzo[d]oxazol-2-yl)-4-((2-hydroxy-3-methoxybenzyl)amino)benzenesulfonamide]
- PAR4-AP induced platelet aggregation (in words) (washed human platelets [3]): Comparable results
- PAR4-AP-induced calcium mobilization (in words) (washed human platelets [4]): Calcium mobilization was decreased; also recorded: Comparable results
- glucose-stimulated insulin secretion with cytokines [5]: Uncoupling of glucose-stimulated insulin secretion by cytokines is inhibited
- solubility ([6]; PBS buffer, pH 7.4, aqueous buffer): > 60 µg/mL
- improvement of solubility in buffer ([6]; relative to ML355): > 10 fold
- half-life ([7]; microsomes, rat, in the presence of NADPH, read-out: Microsomal stability T1/2): > 30 min
- microsomal degradation without NADPH ([7]; without NADPH present over a 1 h period): ^bRepresents the stability in the presence of NADPH. 35 and 36 showed no degradation without NADPH present over a 1 h period.
- mouse plasma stability remaining at 2 h (%) (mouse plasma stability): 100%
- PBS buffer (pH 7.4) stability at 48 h (%) [8]: 100%
- mode of inhibition (12-LOX): mixed inhibitors
- inhibition of 12-HETE in mouse beta cells (in words) (Mouse beta cells (BTC3)): Comparable results
- permeability (1 × 10^−6 cm/s) [9]: 168^c 1 × 10^−6 cm/s
